Experimental data: PubChem BioAssay AID248 (DTP/NCI, 2004)
Inconclusive results and toxic doses are left out. Cut-off read from the data, not from the text of the source: active = T/C of 150% or more; inactive = T/C below 125%.

Test system: L1210 leukemia ip in BDF1 mice, survival T/C
Experiment: NCI In Vivo Anticancer Drug Screen. Data for tumor model L1210 Leukemia (intraperitoneal) in B6D2F1 (BDF1) mice
Details: endpoint: mean survival time, higher = longer survival
Outline: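 Mice bearing the transplanted tumor received compound or vehicle. Survival of the treated group was divided by that of the vehicle-treated control group to give the ratio.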

[1] = dose: 100.0 mg/kg/injection, schedule: Q04DX002 (ip), vehicle: Klucel (hydroxypropylcellulose) (HPC)
[2] = dose: 200.0 mg/kg/injection, schedule: Q04DX002 (ip), vehicle: Klucel (hydroxypropylcellulose) (HPC)
[3] = dose: 400.0 mg/kg/injection, schedule: Q04DX002 (ip), vehicle: Klucel (hydroxypropylcellulose) (HPC)
[4] = dose: 100.0 mg/kg/injection, schedule: Q01DX009 (ip), vehicle: Klucel (hydroxypropylcellulose) (HPC)
[5] = dose: 100.0 mg/kg/injection, schedule: Q04DX003 (ip), vehicle: Klucel (hydroxypropylcellulose) (HPC)
[6] = dose: 200.0 mg/kg/injection, schedule: Q01DX009 (ip), vehicle: Klucel (hydroxypropylcellulose) (HPC)
[7] = dose: 200.0 mg/kg/injection, schedule: Q04DX003 (ip), vehicle: Klucel (hydroxypropylcellulose) (HPC)
[8] = dose: 400.0 mg/kg/injection, schedule: Q01DX009 (ip), vehicle: Klucel (hydroxypropylcellulose) (HPC)
[9] = dose: 400.0 mg/kg/injection, schedule: Q04DX003 (ip), vehicle: Klucel (hydroxypropylcellulose) (HPC)
[10] = dose: 100.0 mg/kg/injection, schedule: Q04DX003 (ip), vehicle: saline with Tween-80
[11] = dose: 200.0 mg/kg/injection, schedule: Q04DX003 (ip), vehicle: saline with Tween-80
[12] = dose: 400.0 mg/kg/injection, schedule: Q04DX003 (ip), vehicle: saline with Tween-80
[13] = dose: 25.0 mg/kg/injection, schedule: Q01DX009 (ip), vehicle: saline
[14] = dose: 100.0 mg/kg/injection, schedule: Q04DX003 (ip), vehicle: saline
[15] = dose: 200.0 mg/kg/injection, schedule: Q04DX003 (ip), vehicle: saline
[16] = dose: 400.0 mg/kg/injection, schedule: Q04DX003 (ip), vehicle: saline
[17] = dose: 100.0 mg/kg/injection, schedule: Q01DX001 (ip), vehicle: carboxymethylcellulose (CMC)
[18] = dose: 200.0 mg/kg/injection, schedule: Q01DX001 (ip), vehicle: carboxymethylcellulose (CMC)
[19] = dose: 400.0 mg/kg/injection, schedule: Q01DX001 (ip), vehicle: carboxymethylcellulose (CMC)
[20] = dose: 50.0 mg/kg/injection, schedule: Q01DX009 (ip), vehicle: Klucel (hydroxypropylcellulose) (HPC)
[21] = dose: 100.0 mg/kg/injection, schedule: Q04DX002 (ip), vehicle: saline
[22] = dose: 200.0 mg/kg/injection, schedule: Q04DX002 (ip), vehicle: saline
[23] = dose: 400.0 mg/kg/injection, schedule: Q04DX002 (ip), vehicle: saline

Measured: T/C

CC(C(=O)c1cccs1)=C(C(F)(F)F)C(F)(F)F
inactive: dose: 100.0 mg/kg/injection, schedule: Q04DX003 (ip), vehicle: other 100 % of control | dose: 200.0 mg/kg/injection, schedule: Q04DX003 (ip), vehicle: other 94 % of control | dose: 400.0 mg/kg/injection, schedule: Q04DX003 (ip), vehicle: other 98 % of control

Clc1ccccc1/C=N\N=C(N/N=C\c1ccccc1Cl)N/N=C/c1ccccc1Cl
inactive: dose: 15.0 mg/kg/injection, schedule: Q01DX Z (ip), vehicle: carboxymethylcellulose (CMC) 103 % of control | dose: 30.0 mg/kg/injection, schedule: Q01DX Z (ip), vehicle: carboxymethylcellulose (CMC) 97 % of control | dose: 60.0 mg/kg/injection, schedule: Q01DX Z (ip), vehicle: carboxymethylcellulose (CMC) 98 % of control | dose: 120.0 mg/kg/injection, schedule: Q01DX Z (ip), vehicle: carboxymethylcellulose (CMC) 97 % of control | dose: 150.0 mg/kg/injection, schedule: Q01DX Z (oral), vehicle: carboxymethylcellulose (CMC) 101 % of control | dose: 300.0 mg/kg/injection, schedule: Q01DX Z (oral), vehicle: carboxymethylcellulose (CMC) 101 % of control | dose: 600.0 mg/kg/injection, schedule: Q01DX Z (oral), vehicle: carboxymethylcellulose (CMC) 101 % of control | dose: 1200.0 mg/kg/injection, schedule: Q01DX Z (oral), vehicle: carboxymethylcellulose (CMC) 100 % of control

Nc1c(Cl)cc(I)cc1C(=O)O
inactive: [1] 94 % of control | [2] 102 % of control | [3] 102 % of control

O=S(=O)(Nc1ccc(F)cc1)c1ccccc1
inactive: [4] 96 % of control | [5] 103 % of control | [6] 102 % of control | [7] 95 % of control | [8] 105 % of control | [9] 93 % of control

CC1(C)CC2(OC2c2ccccc2)C(C)(O)c2ccccc21 (stereo unspecified)
inactive: [10] 98 % of control | [11] 104 % of control | [12] 96 % of control

CC(=O)C(C(C)=O)c1ccccc1.CC(=O)C(C(C)=O)c1ccccc1.[Ni]
inactive: dose: 6.0 mg/kg/injection, schedule: Q01DX009 (ip), vehicle: saline 94 % of control | dose: 12.0 mg/kg/injection, schedule: Q01DX009 (ip), vehicle: saline 94 % of control | [13] 102 % of control

O=C(O)CCCCCCCCCCCCO
inactive: [5] 96 % of control | [7] 91 % of control | [9] 96 % of control

CCCNS(=O)(=O)c1ccc(C(N)=S)cc1
inactive: dose: 100.0 mg/kg/injection, schedule: Q01DX001 (ip), vehicle: Klucel (hydroxypropylcellulose) (HPC) 103 % of control | dose: 200.0 mg/kg/injection, schedule: Q01DX001 (ip), vehicle: Klucel (hydroxypropylcellulose) (HPC) 108 % of control | dose: 400.0 mg/kg/injection, schedule: Q01DX001 (ip), vehicle: Klucel (hydroxypropylcellulose) (HPC) 98 % of control

CC(OC(=O)c1ccccc1O)c1ccccc1 (stereo unspecified)
inactive: [14] 96 % of control | [15] 96 % of control | [16] 100 % of control

Nc1cc(N)cc([N+](=O)[O-])c1
inactive: dose: 3.12 mg/kg/injection, schedule: Q01DX009 (ip), vehicle: saline 103 % of control | dose: 6.25 mg/kg/injection, schedule: Q01DX009 (ip), vehicle: saline 103 % of control | dose: 6.25 mg/kg/injection, schedule: Q04DX003 (ip), vehicle: saline 101 % of control | dose: 12.5 mg/kg/injection, schedule: Q01DX009 (ip), vehicle: saline 95 % of control | dose: 12.5 mg/kg/injection, schedule: Q04DX003 (ip), vehicle: saline 101 % of control | dose: 25.0 mg/kg/injection, schedule: Q04DX003 (ip), vehicle: saline 101 % of control | dose: 50.0 mg/kg/injection, schedule: Q01DX001 (ip), vehicle: carboxymethylcellulose (CMC) 113 % of control | [17] 109 % of control | [18] 107 % of control | [19] 109 % of control

C=CCC1(C(C)C=C)C(=O)NC(=O)NC1=O (stereo unspecified)
inactive: dose: 75.0 mg/kg/injection, schedule: Q01DX001 (ip), vehicle: carboxymethylcellulose (CMC) 98 % of control | dose: 150.0 mg/kg/injection, schedule: Q01DX001 (ip), vehicle: carboxymethylcellulose (CMC) 91 % of control | dose: 300.0 mg/kg/injection, schedule: Q01DX001 (ip), vehicle: carboxymethylcellulose (CMC) 96 % of control

CC(C)CNC(=O)CCc1ccc(N(CCCl)CCCl)cc1
inactive: [20] 109 % of control | [4] 117 % of control | [5] 120 % of control | [7] 102 % of control | [9] 112 % of control

O=C(O)Cc1ccc2[nH]c3c(c2c1)CCCC3
inactive: [20] 105 % of control | dose: 100.0 mg/kg/injection, schedule: Q01DX001 (ip), vehicle: steriod suspending solution 95 % of control | [4] 103 % of control | dose: 200.0 mg/kg/injection, schedule: Q01DX001 (ip), vehicle: steriod suspending solution 92 % of control | [6] 97 % of control

CC(=O)c1ccc(-c2ccc(C(C)=O)cc2)cc1
inactive: [1] 97 % of control | [2] 101 % of control | [3] 97 % of control

Cc1ccc(S(=O)(=O)N(C)c2cc(Cl)c(I)c(Cl)c2)cc1
inactive: [4] 98 % of control | [6] 94 % of control | [8] 96 % of control

CC1CC/C(=N\N(C)C)c2ccccc21 (stereo unspecified)
inactive: dose: 100.0 mg/kg/injection, schedule: Q01DX009 (ip), vehicle: saline with Tween-80 120 % of control | [10] 117 % of control | [11] 103 % of control | [12] 105 % of control

CC1(C)C/C(=C\c2ccc(Cl)cc2)C(=O)c2ccccc21
inactive: [4] 97 % of control | [5] 95 % of control | [6] 93 % of control | [7] 92 % of control | [8] 97 % of control | [9] 92 % of control

Clc1ccc(C[P+](c2ccccc2)(c2ccccc2)c2ccccc2)cc1Cl
inactive: dose: 0.62 mg/kg/injection, schedule: Q01DX009 (ip), vehicle: acetone 98 % of control | dose: 1.25 mg/kg/injection, schedule: Q01DX009 (ip), vehicle: acetone 101 % of control | dose: 2.5 mg/kg/injection, schedule: Q01DX009 (ip), vehicle: acetone 101 % of control | dose: 2.5 mg/kg/injection, schedule: Q04DX003 (ip), vehicle: acetone 94 % of control | dose: 3.6 mg/kg/injection, schedule: Q01DX009 (ip), vehicle: saline with Tween-80 97 % of control | dose: 5.0 mg/kg/injection, schedule: Q01DX001 (ip), vehicle: acetone 90 % of control | dose: 5.6 mg/kg/injection, schedule: Q01DX009 (ip), vehicle: saline with Tween-80 106 % of control | dose: 8.4 mg/kg/injection, schedule: Q01DX009 (ip), vehicle: saline with Tween-80 102 % of control | dose: 10.0 mg/kg/injection, schedule: Q01DX001 (ip), vehicle: acetone 97 % of control

CC1CNC(=O)O1 (stereo unspecified)
inactive: [13] 97 % of control | dose: 50.0 mg/kg/injection, schedule: Q01DX009 (ip), vehicle: saline 97 % of control | dose: 50.0 mg/kg/injection, schedule: Q04DX003 (ip), vehicle: saline 106 % of control | dose: 100.0 mg/kg/injection, schedule: Q01DX009 (ip), vehicle: saline 98 % of control | [21] 100 % of control | [14] 106 % of control | dose: 200.0 mg/kg/injection, schedule: Q01DX009 (ip), vehicle: saline 95 % of control | [22] 91 % of control | [15] 101 % of control | dose: 400.0 mg/kg/injection, schedule: Q01DX009 (ip), vehicle: saline 95 % of control | [23] 91 % of control | [16] 100 % of control

COP(=O)(O)NC(C)=O
inactive: [21] 105 % of control | [22] 108 % of control | [23] 91 % of control

O=C1c2cc([N+](=O)[O-])ccc2-c2cc(Br)c(N=C(NO)C(F)(F)F)cc21
inactive: [17] 103 % of control | [18] 98 % of control | [19] 95 % of control
